From patent publication US10030056B2, “Agents for preventing and treating HIV and other viral infections” (priority 2013, dated 2018)
Non-standard residues stand in square brackets, D forms with d. No end group written: not given here.

How the values were obtained:
[1] = system: HIV-1 laboratory strain NL4-3 PI 952; test: Infectivity of HIV-1 NL4-3 PI 952 in TZM-bl cells with 6 μg/ml SEVI fibrils, luciferase activity (FIG. 4, Table 1); format: cell-based; settings: for luciferase activity of infected cells, mean value: 6 μg/ml SEVI fibrils, 48 hours after infection, HIV + SEVI control 7264.0, HIV + PBS 579.0; for lowering of the increased infectivity of the viruses caused by fibrils associated with SEVI: summary of Table 1 / FIG. 4
Method: The test approach was broken down as follows: The reporter cell line TZM-bl was incubated with the HIV-1 laboratory strain NL4-3 PI 952 in the presence of 6 μg/ml SEVI fibrils (fibril-forming PAP fragments isolated from semen; semen derived enhancer of virus infection). The fibrils were pre-Incubated with or without D3 and D3D3 (0.5 and 5 μg/ml, respectively) prior to infection. The infection efficiency was determined by measuring the luciferase activity (introduced by a luciferase gene coded in the laboratory strain) of the infected cells 48 hours after infection (Table 1: Results of FIG. 4).

HIV-1 [2] = system: HIV-1
Excerpt: So as to analyze the effect of the amyloidogenic inhibitor D3 as a potential therapeutic agent for reducing amyloid peptide-promoted retroviral propagation, adherently growing TZM-bl cells were infected with HIV-1. These cells express the HIV-1 receptors CD4, CXCR4 and CCR5, which is why they are permissive both for T-tropic and M-tropic HIV isolates. […] The TZM-bl indicator cell line thus allows a quantitative analysis of HIV infection efficiency.
D3 was composed of amino acids of the D-enantiomeric form. Forty-eight hours after infection, the TZM-bl cells were washed with PBS, fixed by adding formaldehyde/glutaraldehyde, and subsequently washed again. The β-galactosidase-induced blue coloration of the cells was carried out by incubation overnight with a X-Gal solution. The coloring solution was removed the following day, the fixed cells were washed again with PBS and analyzed for blue coloration by way of optical microscopy. Since these reporter cells also express luciferase, in addition to the β-galactosidase, proportionally with the infection rate, this effect could also be determined quantitatively. […] After adding luciferase substrate solution, the light intensity at the 560 nm wavelength created by the oxidation of luciferin, which, in turn, is catalyzed by the firefly luciferase enzyme, was measured. […]

HIV-1 [3] = system: HIV-1; remark: listed apart in the source
Excerpt: So as to analyze the effect of the amyloidogenic inhibitor D3 as a potential therapeutic agent for reducing amyloid peptide-promoted retroviral propagation, adherently growing TZM-bl cells were infected with HIV-1. […] The TZM-bl indicator cell line thus allows a quantitative analysis of HIV infection efficiency.
D3 was composed of amino acids of the D-enantiomeric form. Forty-eight hours after infection, the TZM-bl cells were washed with PBS, fixed by adding formaldehyde/glutaraldehyde, and subsequently washed again. The β-galactosidase-induced blue coloration of the cells was carried out by incubation overnight with a X-Gal solution. The coloring solution was removed the following day, the fixed cells were washed again with PBS and analyzed for blue coloration by way of optical microscopy. Since these reporter cells also express luciferase, in addition to the β-galactosidase, proportionally with the infection rate, this effect could also be determined quantitatively. For this purpose, the cells were infected in the same manner and, after being washed twice with PBS, were lysed using 1× passive lysis buffer (PLB). After adding luciferase substrate solution, the light intensity at the 560 nm wavelength created by the oxidation of luciferin, which, in turn, is catalyzed by the firefly luciferase enzyme, was measured. […]

[4] = number of cells colored in blue and measured light intensity

| Substance | luciferase activity of infected cells, mean value ([1]; 0.5 μg/ml peptide) | luciferase activity of infected cells, mean value ([1]; 5 μg/ml peptide) | lowering of the increased infectivity of the viruses caused by fibrils associated with SEVI [1] | decrease in number of infected cells compared to the untreated cells with SEVI fibrils (HIV-1 [2]; 0.5 μg/ml D3, SEVI fibrils, TZM-bl cells, FIG. 2C) | reduction of infection rate promoted by SEVI (HIV-1 [2]; [4]) | decrease in number of infected cells compared to the untreated cells with amyloid-beta fibrils (HIV-1 [3]; 5 μg/ml D3, Aβ1-42 fibrils 50 μg/ml, TZM-bl cells, FIG. 2D) | reduction of infection rate promoted by Aβ (HIV-1 [3]; [4]) |
| --- | --- | --- | --- | --- | --- | --- | --- |
| rprtrlhthrnrrprtrlhthrnr ([dR][dP][dR][dT][dR][dL][dH][dT][dH][dR][dN][dR][dR][dP][dR][dT][dR][dL][dH][dT][dH][dR][dN][dR]) [D3D3, dimer of two D3 monomer units] | 5529.7 | 1321.0 | approximately 80% | – | – | – | – |
| rprtrlhthrnr ([dR][dP][dR][dT][dR][dL][dH][dT][dH][dR][dN][dR]) [D3] | 7112.7 | 4368.0 | approximately 80% | approximately 60% | considerably reduce | approximately 90% | considerably reduce |
